Results as given in patent US7125990B2, “Imidazolyl derivatives as corticotropin releasing factor inhibitors” (Bristol-Myers Squibb COmpany, priority 2001, dated 2006).

Target: T1, CRF1 receptors (Homo sapiens, UniProt P34998)
T1 construct: endogenous in cells; host or cells: IMR-32 cells, transformed with 2.5 µM 5'-bromo-2'-deoxyuridine for 10 days; membrane preparation
T1 sequence (P34998 24-415): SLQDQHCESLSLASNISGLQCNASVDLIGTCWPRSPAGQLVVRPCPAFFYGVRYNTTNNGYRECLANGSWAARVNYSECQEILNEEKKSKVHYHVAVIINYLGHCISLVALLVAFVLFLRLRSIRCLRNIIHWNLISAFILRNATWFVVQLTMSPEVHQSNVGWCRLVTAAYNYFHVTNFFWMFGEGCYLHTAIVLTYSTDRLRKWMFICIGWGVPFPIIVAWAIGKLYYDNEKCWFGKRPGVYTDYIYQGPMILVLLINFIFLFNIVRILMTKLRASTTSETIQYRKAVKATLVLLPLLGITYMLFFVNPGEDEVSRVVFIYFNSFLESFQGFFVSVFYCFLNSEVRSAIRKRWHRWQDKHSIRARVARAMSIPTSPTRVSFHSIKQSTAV
Assay: CRF1 receptor radioligand binding assay ([125I]-oCRF competition, IMR-32 cell membranes)
Details: IMR-32 cell membranes, [125I]-oCRF 100 pM; read-out: Ki (CRF-1R)
Summary of the method: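 Buffer: Tris pH 7.2 with MgCl2, BSA, Triton X-100, aprotinin, leupeptin; reaction stopped with ice-cold wash and filtered. Nonspecific binding set with 10 μM oCRF.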

`Cc1cc(C)c(-n2c(Cl)cn3c(CN(CCC(F)(F)F)Cc4ccc(Cl)cc4)c(C(F)(F)F)nc23)c(C)c1` [Example 336, (4-Chloro-benzyl)-[6-chloro-2-trifluoromethyl-7-(2,4,6-trimethyl-phenyl)-7H-imidazo[1,2-a]imidazol-3-ylmethyl]-(3,3,3-trifluoro-propyl)-amine] and `C=CCN(CCC)Cc1c(C(F)(F)F)nc2n(-c3c(C)cc(C)cc3C)c(Cl)cn12` [Example 339, Allyl-[6-chloro-2-trifluoromethyl-7-(2,4,6-trimethyl-phenyl)-7H-imidazo[1,2-a]imidazol-3-ylmethyl]-propyl-amine] cannot be ordered by Ki: less than 0.01 µM for the first, less than 0.01 µM for the second.

`CCCN(Cc1cccc(F)c1)Cc1c(C(F)(F)F)nc2n(-c3c(C)cc(C)cc3C)c(Cl)cn12` [Example 340, [6-Chloro-2-trifluoromethyl-7-(2,4,6-trimethyl-phenyl)-7H-imidazo[1,2-a]imidazol-3-ylmethyl]-(3-fluoro-benzyl)-propyl-amine] and `CCN(Cc1c(C(F)(F)F)nc2n(-c3c(C)cc(C)cc3C)c(Cl)cn12)CC1CCC1` [Example 341, [6-Chloro-2-trifluoromethyl-7-(2,4,6-trimethyl-phenyl)-7H-imidazo[1,2-a]imidazol-3-ylmethyl]-cyclobutylmethyl-ethyl-amine] cannot be ordered by Ki: less than 1 µM for the first, less than 0.01 µM for the second.

`CCCN(CCOC)Cc1c(C(F)(F)F)nc2n(-c3c(C)cc(C)cc3C)c(Cl)cn12` [Example 342, [6-Chloro-2-trifluoromethyl-7-(2,4,6-trimethyl-phenyl)-7H-imidazo[1,2-a]imidazol-3-ylmethyl]-(2-methoxy-ethyl)-propyl-amine] and `Cc1cc(C)c(-n2c(Cl)cn3c(CN(CCC(F)(F)F)Cc4cccc(F)c4)c(C(F)(F)F)nc23)c(C)c1` [Example 343, [6-Chloro-2-trifluoromethyl-7-(2,4,6-trimethyl-phenyl)-7H-imidazo[1,2-a]imidazol-3-ylmethyl]-(3-fluoro-benzyl)-(3,3,3-trifluoro-propyl)-amine] cannot be ordered by Ki: less than 0.1 µM for the first, less than 0.1 µM for the second.

`CCCN(CCC)Cc1c(C(F)(F)F)nc2n(-c3c(C)cc(C)cc3C)c(Cl)cn12` [Example 344, [6-Chloro-2-trifluoromethyl-7-(2,4,6-trimethyl-phenyl)-7H-imidazo[1,2-a]imidazol-3-ylmethyl]-dipropyl-amine] and `C=CCN(CC=C)Cc1c(C(F)(F)F)nc2n(-c3c(C)cc(C)cc3C)c(Cl)cn12` [Example 345, Diallyl-[6-chloro-2-trifluoromethyl-7-(2,4,6-trimethyl-phenyl)-7H-imidazo[1,2-a]imidazol-3-ylmethyl]-amine] cannot be ordered by Ki: less than 0.1 µM for the first, less than 0.01 µM for the second.

`CCCCN(CC)Cc1c(C(F)(F)F)nc2n(-c3c(C)cc(C)cc3C)c(Cl)cn12` [Example 346, Butyl-[6-chloro-2-trifluoromethyl-7-(2,4,6-trimethyl-phenyl)-7H-imidazo[1,2-a]imidazol-3-ylmethyl]-ethyl-amine] and `Cc1cc(C)c(N2CCCn3c2nc(C(F)(F)F)c3CN2CCCC2Cc2ccccc2)c(C)c1` (stereo not drawn) [Example 347, 3-(2-Benzyl-pyrrolidin-1-ylmethyl)-2-trifluoromethyl-8-(2,4,6-trimethyl-phenyl)-5,6,7,8-tetrahydro-imidazo[1,2-a]pyrimidine] cannot be ordered by Ki: less than 0.1 µM for the first, less than 0.01 µM for the second.

“(2,2,3,3,3-Pentafluoro-propyl)-(2,2,2-trifluoro-ethyl)-[2-trifluoromethyl-8-(2,4,6-trimethyl-phenyl)-8H-1,3a,8-triaza-cyclopenta[α]inden-3-ylmethyl]-amine [Example 162]” and “Phenethyl-[2-trifluoromethyl-8-(2,4,6-trimethyl-phenyl)-8H-1,3a,8-triaza-cyclopenta[α]inden-3-ylmethyl]-(3,3,3-trifluoro-propyl)-amine [Example 168]” cannot be ordered by Ki: less than 1 µM for the first, less than 1 µM for the second.
